Read-outs that look alike come from different tables or passages of the source.
Target: T1, GABA A α5 (α5β3γ2) (Homo sapiens, UniProt P18507+P31644)
T1 construct: expressed in transfected cells; host or cells: HEK293, transiently transfected; membrane preparation
Assay: [3H]flumazenil competition binding, human GABA A α5 receptor
Experimental: Membrane Preparation and Binding Assay
The affinity of compounds at GABA A receptor subtypes was measured by competition for [3H]flumazenil (85 Ci/mmol; Roche) binding to HEK293 cells expressing rat (stably transfected) or human (transiently transfected) receptors of compositional α1β3γ2, α2β3γ2, α3β3γ2 and α5β3γ2.
Cell pellets were suspended in Krebs-tris buffer (4.8 mM KCl, 1.2 mM CaCl2, 1.2 mM MgCl2, 120 mM NaCl, 15 mM Tris; pH 7.5; binding assay buffer), homogenized by polytron for ca. 20 sec on ice and centrifuged for 60 min at 4° C. (50000 g; Sorvall, rotor: SM24=20000 rpm). The cell pellets were re-suspended in Krebs-tris buffer and homogenized by polytron for ca. 15 sec on ice. Protein was measured (Bradford method, Bio-Rad) and aliquots of 1 mL were prepared and stored at −80° C.
Assays were incubated to equilibrium for 1 hour at 4° C. and harvested onto GF/C uni-filters (Packard) by filtration using a Packard harvester and washing with ice-cold wash buffer (50 mM Tris; pH 7.5). After drying, filter-retained radioactivity was detected by liquid scintillation counting. Ki values were calculated using Excel-Fit (Microsoft) and are the means of two determinations.

[1] = human receptor α5β3γ2 transiently transfected in HEK293 cells, competition for [3H]flumazenil 0.5 nM, 1 hour at 4° C., means of two determinations, read-out: hKi GABA A α5

Compound	Ki [1]	Ki
CCCCc1noc(C)c1CCc1ncc(C(=O)N[C@@H](C)CO)s1 [Example 61, 2-[2-(3-Butyl-5-methyl-isoxazol-4-yl)-ethyl]-thiazole-5-carboxylic acid ((S)-2-hydroxy-1-methyl-ethyl)-amide]	43.6 nM	
Cc1nc(CCc2c(-c3ccc(F)cn3)noc2C)sc1C(=O)NCC1CC1 [Example 34, 2-{2-[3-(5-Fluoro-pyridin-2-yl)-5-methyl-isoxazol-4-yl]-ethyl}-4-methyl-thiazole-5-carboxylic acid cyclopropylmethyl-amide]	16 nM	
Cc1nc(CCc2c(-c3ccccc3)noc2C)sc1C(=O)NC(C)C [Example 1, 4-Methyl-2-[2-(5-methyl-3-phenyl-isoxazol-4-yl)-ethyl]-thiazole-5-carboxylic acid iso-propylamide]	5.7 nM	
Cc1onc(-c2ccc(F)cn2)c1/C=C/c1ncc(C(N)=O)s1 [Example 81, 2-{(E)-2-[3-(5-Fluoro-pyridin-2-yl)-5-methyl-isoxazol-4-yl]-vinyl}-thiazole-5-carboxylic acid amide]	5.5 nM	
CCCCc1noc(C)c1/C=C/c1nc(C)c(C(=O)NCC)s1 [Example 121, 2-[(E)-2-(3-Butyl-5-methyl-isoxazol-4-yl)-vinyl]-4-methyl-thiazole-5-carboxylic acid ethylamide]	5 nM	
CCCCc1noc(C)c1/C=C/c1nc(C)c(C(=O)N[C@H]2CCC[C@@H]2O)s1 [Example 111, 2-[(E)-2-(3-Butyl-5-methyl-isoxazol-4-yl)-vinyl]-4-methyl-thiazole-5-carboxylic acid ((1S,2S)-2-hydroxy-cyclopentyl)-amide]	5.5 nM	
CCCCc1noc(C)c1/C=C/c1nc(C)c(C(=O)NC2CCS(=O)(=O)C2)s1 (stereo not drawn) [Example 118, 2-[(E)-2-(3-Butyl-5-methyl-isoxazol-4-yl)-vinyl]-4-methyl-thiazole-5-carboxylic acid (1,1-dioxo-tetrahydrothiophen-3-yl)-amide]	2.5 nM	
CCCCc1noc(C)c1/C=C/c1nc(C)c(C(=O)NC(C)CO)s1 (racemic) [Example 97, Rac-2-[(E)-2-(3-Butyl-5-methyl-isoxazol-4-yl)-vinyl]-4-methyl-thiazole-5-carboxylic acid (2-hydroxy-1-methyl-ethyl)-amide]	4.7 nM	
Cc1onc(-c2ccc(F)cn2)c1/C=C/c1ncc(C(=O)NC2CC2)s1 [Example 79, 2-{(E)-2-[3-(5-Fluoro-pyridin-2-yl)-5-methyl-isoxazol-4-yl]-vinyl}-thiazole-5-carboxylic acid cyclopropylamide]		4.1 nM
Cc1onc(-c2ccc(F)cn2)c1CCc1ncc(C(=O)NC2CC2)s1 [Example 42, 2-{2-[3-(5-Fluoro-pyridin-2-yl)-5-methyl-isoxazol-4-yl]-ethyl}-thiazole-5-carboxylic acid cyclopropylamide]		12.7 nM
Cc1nc(CCc2c(-c3ccccn3)noc2C)sc1C(=O)NC(C)C [Example 10, 4-Methyl-2-[2-(5-methyl-3-pyridin-2-yl-isoxazol-4-yl)-ethyl]-thiazole-5-carboxylic acid isopropylamide]	4.3 nM	
Cc1onc(-c2ccccc2)c1CNc1ncc(C(=O)NC2CCOCC2)s1 [Example 136, 2-[(5-Methyl-3-phenyl-isoxazol-4-ylmethyl)-amino]-thiazole-5-carboxylic acid (tetra-hydro-pyran-4-yl)-amide]	27.5 nM	
Cc1onc(-c2ccc(F)cn2)c1/C=C/c1ncc(C(=O)N2CCOCC2)s1 [Example 86, (2-{(E)-2-[3-(5-Fluoro-pyridin-2-yl)-5-methyl-isoxazol-4-yl]-vinyl}-thiazol-5-yl)-morpholin-4-yl-methanone]	31.2 nM	
CCCCc1noc(C)c1CCc1nc(C)c(C(=O)NC(CO)CO)s1 [Example 53, 2-[2-(3-Butyl-5-methyl-isoxazol-4-yl)-ethyl]-4-methyl-thiazole-5-carboxylic acid (2-hydroxy-1-hydroxymethyl-ethyl)-amide]	18.7 nM	
CCCCc1noc(C)c1/C=C/c1nc(C)c(C(=O)N2CCOCC2)s1 [Example 120, {2-[(E)-2-(3-Butyl-5-methyl-isoxazol-4-yl)-vinyl]-4-methyl-thiazol-5-yl}-morpholin-4-yl-methanone]	57.8 nM	
CCCCc1noc(C)c1CCc1nc(C)c(C(=O)NC(C)CO)s1 (stereo not drawn) [Example 50, 2-[2-(3-Butyl-5-methyl-isoxazol-4-yl)-ethyl]-4-methyl-thiazole-5-carboxylic acid (2-hydroxy-1-methyl-ethyl)-amide]	16.8 nM	
Cc1onc(-c2ccccn2)c1CCc1ncc(C(=O)NC(C)C)s1 [Example 22, 2-[2-(5-Methyl-3-pyridin-2-yl-isoxazol-4-yl)-ethyl]-thiazole-5-carboxylic acid isopropylamide]	18.1 nM	

Compound	Ki [1]	Ki
CCCCc1noc(C)c1/C=C\c1nc(C)c(C(=O)NCCO)s1 [Example 101, 2-[(Z)-2-(3-Butyl-5-methyl-isoxazol-4-yl)-vinyl]-4-methyl-thiazole-5-carboxylic acid (2-hydroxy-ethyl)-amide]	28.8 nM	
Cc1onc(-c2ccccn2)c1CCc1ncc(C(=O)NC2CCS(=O)(=O)C2)s1 (stereo not drawn) [Example 27, 2-[2-(5-Methyl-3-pyridin-2-yl-isoxazol-4-yl)-ethyl]-thiazole-5-carboxylic acid (1,1-dioxo-tetrahydrothiophen-3-yl)-amide]	14 nM	
CCCCc1noc(C)c1/C=C/c1nc(C)c(C(=O)N2CCC2)s1 [Example 110, Azetidin-1-yl-{2-[(E)-2-(3-butyl-5-methyl-isoxazol-4-yl)-vinyl]-4-methyl-thiazol-5-yl}-methanone]	30.8 nM	
Cc1onc(-c2ccccn2)c1CCc1ncc(C(=O)NCC(F)(F)F)s1 [Example 28, 2-[2-(5-Methyl-3-pyridin-2-yl-isoxazol-4-yl)-ethyl]-thiazole-5-carboxylic acid (2,2,2-trifluoro-ethyl)-amide]	17.8 nM	
CCCCc1noc(C)c1CCc1ncc(C(=O)NC2CCOCC2)s1 [Example 59, 2-[2-(3-Butyl-5-methyl-isoxazol-4-yl)-ethyl]-thiazole-5-carboxylic acid (tetrahydro-pyran-4-yl)-amide]	32.5 nM	
Cc1nc(/C=C/c2c(-c3ccc(F)cn3)noc2C)sc1C(=O)NCC1CC1 [Example 75, 2-{(E)-2-[3-(5-Fluoro-pyridin-2-yl)-5-methyl-isoxazol-4-yl]-vinyl}-4-methyl-thiazole-5-carboxylic acid cyclopropylmethyl-amide]	1.8 nM	
Cc1onc(-c2ccc(F)cn2)c1/C=C/c1ncc(C(=O)NCC2CC2)s1 [Example 82, 2-{(E)-2-[3-(5-Fluoro-pyridin-2-yl)-5-methyl-isoxazol-4-yl]-vinyl}-thiazole-5-carboxylic acid cyclopropylmethyl-amide]	4.7 nM	
Cc1onc(-c2ccc(F)cn2)c1/C=C/c1ncc(C(=O)NCC(F)(F)F)s1 [Example 84, 2-{(E)-2-[3-(5-Fluoro-pyridin-2-yl)-5-methyl-isoxazol-4-yl]-vinyl}-thiazole-5-carboxylic acid (2,2,2-trifluoro-ethyl)-amide]		4.1 nM
CCCCc1noc(C)c1CCc1ncc(C(=O)NC(C)CO)s1 (stereo not drawn) [Example 58, 2-[2-(3-Butyl-5-methyl-isoxazol-4-yl)-ethyl]-thiazole-5-carboxylic acid (2-hydroxy-1-methyl-ethyl)-amide]	50.9 nM	
CCCCc1noc(C)c1/C=C/c1nc(C)c(C(=O)NN2CCOCC2)s1 [Example 103, 2-[(E)-2-(3-Butyl-5-methyl-isoxazol-4-yl)-vinyl]-4-methyl-thiazole-5-carboxylic acid morpholin-4-ylamide]	1.8 nM	
CNC(=O)c1cnc(/C=C/c2c(-c3ccc(F)cn3)noc2C)s1 [Example 88, 2-{(E)-2-[3-(5-Fluoro-pyridin-2-yl)-5-methyl-isoxazol-4-yl]-vinyl}-thiazole-5-carboxylic acid methylamide]	6.2 nM	
CCCCc1noc(C)c1/C=C/c1nc(C)c(C(=O)NC(CC)CO)s1 (racemic) [Example 104, Rac-2-[(E)-2-(3-Butyl-5-methyl-isoxazol-4-yl)-vinyl]-4-methyl-thiazole-5-carboxylic acid (1-hydroxymethyl-propyl)-amide]	3.1 nM	
COC(=O)c1sc(CCc2c(-c3ccc(F)cn3)noc2C)nc1C [Example 30, 2-{2-[3-(5-Fluoro-pyridin-2-yl)-5-methyl-isoxazol-4-yl]-ethyl}-4-methyl-thiazole-5-carboxylic acid methyl ester]	23.6 nM	
Cc1nc(/C=C/c2c(-c3ccccc3)noc2C)sc1C(=O)NC(C)C [Example 68, 4-Methyl-2-[(E)-2-(5-methyl-3-phenyl-isoxazol-4-yl)-vinyl]-thiazole-5-carboxylic acid isopropylamide]	0.4 nM	
CCCCc1noc(C)c1CCc1nc(C)c(C(=O)NC2CCOCC2)s1 [Example 51, 2-[2-(3-Butyl-5-methyl-isoxazol-4-yl)-ethyl]-4-methyl-thiazole-5-carboxylic acid (tetra-hydro-pyran-4-yl)-amide]	11.1 nM	
Cc1onc(-c2ccccc2)c1COc1ncc(C(=O)NC(C)CO)s1 (stereo not drawn) [Example 129, 2-(5-Methyl-3-phenyl-isoxazol-4-ylmethoxy)-thiazole-5-carboxylic acid (2-hydroxy-1-methyl-ethyl)-amide]	4.2 nM	

— patent US8178522B2, “Thiazoles” (Hoffmann-La Roche Inc., priority 2009, dated 2012)
